Experimental data taken from patent publication US12220418B2 (MEDINCELL S.A., priority 2023, dated 2025).

Assay: Open-label SAD and MAD study, pharmacokinetics in healthy subjects and patients
Format: in vivo, human
Settings: oral, 2.5 to 20 mg/day for 7 days
Experimental: This study was an open-label, SAD, and MAD study to evaluate the safety, tolerability, and PK of Formulation 1 in healthy subjects and patients with a diagnosis of schizophrenia or schizoaffective disorder. Healthy subjects received subtherapeutic Formulation 1 doses of up to 105 mg and patients received therapeutic doses of up to 566 mg. […] Subjects and patients who met screening eligibility were assigned to 1 of 8 active cohorts, or the Vehicle Cohort, as detailed in Table 5.1 below.
All cohorts included assessments of safety, tolerability, and intensive PK sampling.
Except for the starting dose of 70 mg, the study followed an adaptive design in which the decision to dose-escalate with Formulation 1 was based on a review of the PK and safety data from the preceding lower dose of Formulation 1.
An extensive PK collection scheme was applied following the last oral dose to fully characterize the PK at steady-state.
In multiple-dose cohorts, the 3 doses of Formulation 1 were administered on day 1, day 29 (week 4) and day 57 (week 8), respectively.

Cc1cc2c(s1)Nc1ccccc1N=C2N1CCN(C)CC1 [olanzapine, 2-methyl-4-(4-methyl-1-piperazinyl)-10H-thieno[2,3-b] [1,5]benzodiazepine]
increase of systemic exposure (Cmax, AUCτ,ss) with dose: dose-proportional
